Where two headings read alike, the source gives them in different places.
Key:
MAGL = molecular target: T1, MAGL (Homo sapiens, UniProt Q99685); experiment: biochemical
T1 construct: purchased Finetest (China)
T1 sequence (Q99685 1-303): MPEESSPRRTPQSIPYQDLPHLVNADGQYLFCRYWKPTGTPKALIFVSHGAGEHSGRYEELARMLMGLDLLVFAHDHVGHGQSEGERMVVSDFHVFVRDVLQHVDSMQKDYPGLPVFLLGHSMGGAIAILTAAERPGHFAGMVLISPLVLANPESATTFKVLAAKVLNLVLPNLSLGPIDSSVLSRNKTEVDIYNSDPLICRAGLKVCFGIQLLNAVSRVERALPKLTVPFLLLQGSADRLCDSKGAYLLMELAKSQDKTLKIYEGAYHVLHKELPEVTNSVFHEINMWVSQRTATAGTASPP
Method: The MAGL inhibitory activity of the synthesized compounds was assessed using a spectrophotometric assay, employing 4-NPA as a surrogate substrate. The experimental procedure was adapted from a previously published protocol with minor modifications.[37]
The assay was conducted at room temperature using an ELISA reader (EMR-500) with a 96-well plate, with a total reaction volume of 200 μL per well. The reaction system comprised 10 mM tris–HCl buffer (pH 7.2), 1 mM EDTA, and 0.1 mg mL^−1 bovine serum albumin. […] The negative control was prepared by replacing the inhibitor with 10 μL of DMSO. The enzymatic reaction was initiated by adding 40 μL of MAGL enzyme solution (11 ng per well), while the blank control used buffer instead of the enzyme. The reaction mixtures were incubated for 30 minutes, and absorbance was measured at 405 nm. Each sample was tested in triplicate, and IC50 values were determined from the obtained data using GraphPad Prism 8.4.3.

AChE = molecular target: T2, AChE (Homo sapiens, UniProt P22303); experiment: AChE inhibition assay (Ellman's method); type: biochemical
T2 construct: purchased Sigma-Aldrich (Germany)
Method: The AChE inhibitory activity of the synthesized compounds was determined using Ellman's method, with slight modifications to optimize experimental conditions.[35] The assay was performed following the procedures described in our previous study.[36]

[1] = 4-NPA 100 μM, 30 min, absorbance 405 nm, triplicate, read-out: IC50 ± SD MAGL
[2] = Ellman's method, read-out: IC50 ± SD AChE

T2 sequence (P22303 32-614): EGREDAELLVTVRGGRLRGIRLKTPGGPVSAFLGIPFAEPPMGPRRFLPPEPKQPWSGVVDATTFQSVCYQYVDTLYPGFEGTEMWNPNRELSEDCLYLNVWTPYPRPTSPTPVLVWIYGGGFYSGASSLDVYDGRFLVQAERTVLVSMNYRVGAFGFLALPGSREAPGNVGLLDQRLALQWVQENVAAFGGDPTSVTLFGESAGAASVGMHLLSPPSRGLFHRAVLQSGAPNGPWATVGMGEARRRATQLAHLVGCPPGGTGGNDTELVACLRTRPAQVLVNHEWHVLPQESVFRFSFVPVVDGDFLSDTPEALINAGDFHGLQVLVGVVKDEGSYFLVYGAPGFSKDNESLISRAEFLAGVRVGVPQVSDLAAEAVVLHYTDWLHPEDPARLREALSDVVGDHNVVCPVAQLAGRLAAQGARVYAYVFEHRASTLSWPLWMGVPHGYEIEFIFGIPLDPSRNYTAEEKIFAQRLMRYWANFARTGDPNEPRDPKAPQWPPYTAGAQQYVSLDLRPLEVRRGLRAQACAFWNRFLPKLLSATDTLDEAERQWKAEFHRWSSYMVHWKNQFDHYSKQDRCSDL

`CN(C)C(=O)Oc1cc(O)c2c(=O)cc(-c3ccccc3)oc2c1` [Compound C1, 5-Hydroxy-4-oxo-2-phenyl-4H-chromen-7-yl dimethylcarbamate] showed an IC50 (MAGL) of 72.2 ± 5.34 µM and an IC50 (AChE) of 188 ± 16.2 µM.

`CCN(CC)C(=O)Oc1cc(O)c2c(=O)cc(-c3ccccc3)oc2c1` [Compound C3, 5-Hydroxy-4-oxo-2-phenyl-4H-chromen-7-yl diethylcarbamate] showed an IC50 (MAGL; [1]) of 22.9 ± 1.3 µM and an IC50 (AChE; [2]) of 61.8 ± 1.42 µM.

`CCN(C)C(=O)Oc1cc(O)c2c(=O)cc(-c3ccccc3)oc2c1` [Compound C5, 5-Hydroxy-4-oxo-2-phenyl-4H-chromen-7-yl ethyl(methyl)carbamate] was tested, and the IC50 (MAGL) was 46.6 ± 2.23 µM and the IC50 (AChE) was 89.4 ± 5.66 µM.

`CCN(CC)C(=O)Oc1ccc(-c2oc3cc(OC(=O)N(CC)CC)cc(O)c3c(=O)c2OC(=O)N(CC)CC)cc1` [Compound K3, 2-(4-((Diethylcarbamoyl)oxy)phenyl)-5-hydroxy-4-oxo-4H-chromene-3,7-diyl bis(diethylcarbamate)] showed an IC50 (MAGL; [1]) of 61.6 ± 3.01 µM and an IC50 (AChE; [2]) of 146 ± 10.4 µM.

For `CN(C)C(=O)Oc1cc(OC(=O)N(C)C)c2c(=O)cc(-c3ccccc3)oc2c1` [Compound C2, 4-Oxo-2-phenyl-4H-chromene-5,7-diyl bis(dimethylcarbamate)], the IC50 (MAGL) was 96.4 ± 1.54 µM and the IC50 (AChE) was > 200 µM.

Work on `CN(C)C(=O)Oc1ccc(-c2oc3cc(OC(=O)N(C)C)cc(O)c3c(=O)c2OC(=O)N(C)C)cc1` [Compound K1, 2-(4-((Dimethylcarbamoyl)oxy)phenyl)-5-hydroxy-4-oxo-4H-chromene-3,7-diyl bis(dimethylcarbamate)] yielded an IC50 (MAGL) of 126 ± 8.28 µM and an IC50 (AChE) of 100 ± 7.85 µM.

`CCN(C)C(=O)Oc1cc(OC(=O)N(C)CC)c2c(=O)cc(-c3ccccc3)oc2c1` [Compound C6, 4-Oxo-2-phenyl-4H-chromene-5,7-diyl bis(ethyl(methyl)carbamate)] was tested, and the IC50 (MAGL) was > 200 µM and the IC50 (AChE) was > 200 µM.

In the case of `CCN(C)C(=O)Oc1ccc(-c2oc3cc(OC(=O)N(C)CC)cc(OC(=O)N(C)CC)c3c(=O)c2OC(=O)N(C)CC)cc1` [Compound K6, 2-(4-((Ethyl(methyl)carbamoyl)oxy)phenyl)-4-oxo-4H-chromene-3,5,7-triyl tris(ethyl(methyl)carbamate)], the IC50 (MAGL) is reported as 178 ± 9.12 µM and the IC50 (AChE) is reported as > 200 µM.

`CCN(C)C(=O)Oc1ccc(-c2oc3cc(OC(=O)N(C)CC)cc(O)c3c(=O)c2OC(=O)N(C)CC)cc1` [Compound K5, 2-(4-((Ethyl(methyl)carbamoyl)oxy)phenyl)-5-hydroxy-4-oxo-4H-chromene-3,7-diyl bis(ethyl(methyl)carbamate)] was tested, and the IC50 (MAGL) was 60.1 ± 4.74 µM and the IC50 (AChE) was > 200 µM.

`CN(C)C(=O)Oc1ccc(-c2oc3cc(OC(=O)N(C)C)cc(OC(=O)N(C)C)c3c(=O)c2OC(=O)N(C)C)cc1` [Compound K2, 2-(4-((Dimethylcarbamoyl)oxy)phenyl)-4-oxo-4H-chromene-3,5,7-triyl tris(dimethylcarbamate)] was tested, and the IC50 (MAGL) was > 200 µM and the IC50 (AChE) was > 200 µM.

Compound `O=c1c(O)c(-c2ccc(O)cc2)oc2cc(O)cc(O)c12` [Kaempferol, reference compound] has an IC50 (MAGL; [1]) of 189 ± 7.89 µM and an IC50 (AChE) of 226 ± 17.9 µM.

`CCN(CC)C(=O)Oc1ccc(-c2oc3cc(OC(=O)N(CC)CC)cc(OC(=O)N(CC)CC)c3c(=O)c2OC(=O)N(CC)CC)cc1` [Compound K4, 2-(4-((Diethylcarbamoyl)oxy)phenyl)-4-oxo-4H-chromene-3,5,7-triyl tris(diethylcarbamate)] was tested, and the IC50 (MAGL; [1]) was > 200 µM and the IC50 (AChE; [2]) was > 200 µM.

`O=c1cc(-c2ccccc2)oc2cc(O)cc(O)c12` [Chrysin, reference compound] gave an IC50 (MAGL; [1]) of 169 ± 11.4 µM and an IC50 (AChE; [2]) of 157 ± 11.7 µM.

For `CCN(CC)C(=O)Oc1cc(OC(=O)N(CC)CC)c2c(=O)cc(-c3ccccc3)oc2c1` [Compound C4, 4-Oxo-2-phenyl-4H-chromene-5,7-diyl bis(diethylcarbamate)], the IC50 (MAGL; [1]) was > 200 µM and the IC50 (AChE; [2]) was > 200 µM.

— paper PMC12090193, “Flavonoid carbamate hybrids: design, synthesis, and evaluation as multi-target enzyme inhibitors for Alzheimer's disease” (RSC Advances, 2025)
